In data set [1] the test system is inflammatory cell recruitment in the airways of OVA-sensitized and challenged BALB/c mice. In words: 8-day murine model of airway hypereosinophilia (OVA sensitization and challenge), cell counts in BALF. The data set is classed as in vivo, mouse. The note with it: intranasal 300 nmol/kg in 10% HP-βCD; for effect on eosinophil / inflammatory cell recruitment in BALF after OVA challenge, intranasal: 2 h before each challenge. As for the experimental part: The in vivo activity of the compounds was assessed in an 8-day model of hypereosinophilia created by immunization and challenge to ovalbumin in mice. Briefly, 9-week-old male BALB/c mice were sensitized by intraperitoneal injection of a mixture of 50 μg of ovalbumin (OVA, grade V; Sigma-Aldrich) adsorbed on aluminum hydroxide (2 mg; Sigma-Aldrich) in 0.1 ml of saline on days 0, 1, and 2. Mice were challenged intranasally with 10 μg of OVA in 25 μl of saline (12.5 μl/nostril) on days 5, 6, and 7. Control mice received intraperitoneal and intranasal administrations of saline alone. Intranasal administrations were performed under anesthesia with 50 mg/kg ketamine and 3.33 mg/kg xylazine given intraperitoneally. Food and water were supplied ad libitum. Animal experimentation was conducted with the approval of the government body that regulates animal research in France. The chalcone compounds were administered either by the intraperitoneal or intranasal routes. In a first set of experiments, mice received either chalcone 4 or carbonitrile-chalcone 4 solubilized in PBS with 10% HP-βCD (C0926, Sigma) by intranasal injection 2 h before each nasal OVA or saline challenge. In a second set of experiments, mice received CN-chalcone 4, vanillin, or parachlorobenzoylacetonitrile intranasally, in PBS with HP-βCD 10%, 2 h before each OVA or saline challenge. In the last set of experiments, mice received chalcone 4 or CN-chalcone 4 in suspension in carboxymethylcellulose 1% or solubilized in PBS with HP-βCD 10% and administered by intraperitoneal injection 2 h before each OVA or saline challenge. Collection of bronchoalveolar lavage fluid (BALF) was performed 24 h after the last OVA challenge. Mice were deeply anesthetized by intraperitoneal injection of 150 mg/kg ketamine and 10 mg/kg xylazine. A plastic canula was inserted into the trachea, and airways were lavaged by 10 instillations of 0.5 ml of ice-cold saline supplemented with 2.6 mM EDTA (saline-EDTA). Total and differential cell counts in the BALF were performed after centrifugation (300 × g for 5 min at 4 °C) to pellet cells. Erythrocytes were lysed by hypotonic shock by the addition of 1.5 ml of distilled H2O, followed by the addition of 0.5 ml of 0.6 M KCl. Cells were centrifuged and resuspended in 500 μl of ice-cold saline-EDTA, and total cell counts were determined using a hemocytometer (Neubauer's chamber). Differential cell counts were assessed on cytologic preparation obtained by cytocentrifugation (Cytospin 3, Shandon Ltd.) of 200 μl of diluted BALF (250,000 cells/ml in ice-cold saline-EDTA). Slides were stained with Hemacolor (Merck), and counts were performed on at least 400 cells for each preparation. Differential counts were expressed as absolute numbers or as a percentage of the total number of cells.
The in vivo activity of CN-chalcone 4 was assayed in a recently developed 8-day mouse model of airway hypereosinophilia ([24]). In this model, mice are sensitized by intraperitoneal injection of OVA (50 μg) adsorbed on 2 mg of aluminum hydroxide in 0.1 ml of saline on days 0, 1, and 2. Mice are then challenged intranasally with 10 μg of OVA in 25 μl of saline (12.5 μl/nostril) on days 5, 6, and 7. Drugs to be tested can be administered either systemically by the intraperitoneal route or locally by the intranasal route. The intranasal route mimics the inhalation exposure used in humans, which is the preferred and well accepted administration for inflamed airway treatment, in particular asthma. Thus, unless otherwise stated, drugs were administered intranasally in this study. Due to limited solubility of chalcone 4 (9 ± 1 μM) and CN-chalcone 4 (16 ± 2 μM) in saline buffer, drugs were dissolved in physiological solutions complemented with HP-βCD (10%, w/w). Under such conditions, chalcone 4 and CN-chalcone 4 could be dissolved at maximal concentrations reaching 690 ± 44 and 493 ± 36 μM, respectively.

The target of data set [2] is T1, CXCL12 binding to CXCR4 (Homo sapiens, UniProt P48061).
T1 construct: expressed in transfected cells
In words: FRET-based binding of CXCL12-TR to EGFP-hCXCR4 (competition). Conditions: concentrations up to 10 μM. As for the experimental part: FRET-based binding experiments were carried out as described ([26], [46]). Human embryonic kidney 293 cells expressing the fusion receptor EGFP-hCXCR4 were harvested in PBS (137 mM NaCl, 2.7 mM KCl, 4.3 mM Na2PO4·7H2O, 1.4 mM KH2PO4, pH 7.4) supplemented with 5 mM EDTA, pH 7.4, centrifuged, and resuspended in HEPES-bovine serum albumin (BSA) buffer (10 mM HEPES, 137.5 mM NaCl, 1.25 mM MgCl2, 1.25 mM CaCl2, 6 mM KCl, 10 mM glucose, 0.4 mM NaH2PO4, 0.1% bovine serum albumin (w/v), pH 7.4). Cells were used at a concentration of 10^6 cells/ml. Apparent affinities of the different ligands were determined by real-time fluorescence monitoring ligand-receptor interactions. […] Fluorescence emitted at 510 nm (excitation at 470 nm) was recorded at 21 °C using a Fluorolog 2 spectrofluorimeter (SPEX) and sampled every 0.3 s. Binding of CXCL12-TR to EGFP-labeled CXCR4 was detected as a reversible decline of emission at 510 nm, due to energy transfer from excited EGFP to TR. For competition experiments, the fluorescent chemokine was preincubated for 1 h at room temperature with or without various concentrations of each chalcone. Then the premix was added, and fluorescence was recorded until equilibrium was reached (300 s). Data were analyzed using Kaleidagraph 3.08 software (Synergy Software, Reading, PA).

Data set [3] has as its target T1, CXCL12 binding to CXCR4. The arrangement: method as in PMID 18556651. The note with it: cited from earlier work.

Consider `N#CCC(=O)c1ccc(Cl)cc1` [pCBA, para-chlorobenzoylacetonitrile], for which the “effect on eosinophil / inflammatory cell recruitment in BALF after OVA challenge, intranasal” value in data set [1] is reported as “no effect on eosinophil recruitment in the airways”. The “binding-neutralizing activity (CXCL12-TR binding to EGFP-CXCR4)” value on CXCL12 binding to CXCR4 [2] is given as “Neither vanillin nor pCBA exhibits any binding-neutralizing activity”.
For `COc1cc(C=O)ccc1O` [vanillin] the same measures were “no effect on eosinophil recruitment in the airways” and “Neither vanillin nor pCBA exhibits any binding-neutralizing activity”.
As to `O=C(/C=C/c1ccccc1)c1ccccc1` [chalcone 1, reference compound], the “effect on eosinophil / inflammatory cell recruitment in BALF after OVA challenge, intranasal” value in data set [1] is given as “nor does it significantly attenuate eosinophil or any other inflammatory cell recruitment in the airways”. Moreover, in data set [1] (no OVA challenge), the “cell recruitment in the airways elicited by compound itself (saline-challenged mice), intranasal” value is “does not promote any inflammatory response per se”. In addition, the “activity upon CXCL12 binding to CXCR4” value on CXCL12 binding to CXCR4 [3] was “inactive”.

Values taken from paper PMC3636874, “An Antedrug of the CXCL12 Neutraligand Blocks Experimental Allergic Asthma without Systemic Effect in Mice” (The Journal of Biological Chemistry, 2013).
